Data taken from patent US12583825B2, “Benzo[h]quinazolin-4-amine and thieno[3,2-h]quinazolin-4-amine derivatives for the treatment of cancer” (Redona Therapeutics, Inc., priority 2020, dated 2026).

Experiments:
MDA-MB-231 cells = assay: MDA-MB-231 proliferation assay; type: cell-based; conditions: Homo sapiens, 72 hours, YO-PRO-1 readout
Method in brief: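 Cells seeded at 750/well in DMEM with 10% FBS, treated 72 h at 37 °C, 0.5% DMSO final. Cell number read by YO-PRO-1 fluorescence (485/530 nm), normalised to DMSO (100%) and time-of-addition cells (0%); 4-parameter logistic fit with maximum fixed at 100%.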

[1] = tested on: phospho-SRSF6 levels in MDA-MB-468 cells; assay: Inhibition of phospho-SRSF6 levels in MDA-MB-468 cells (Western blot); type: cell-based; conditions: Homo sapiens, 100 nM, 2 hours, normalized by GAPDH, read-out: % Intensity of p-SRSF6 signal at 100 nM compared to DMSO control
Experimental: FIG. 1: FIG. 1 provides a representative Western blot showing reduction of phosphorylated-SRSF6 (P-SRSF6) in MDA-MB 468 cells by compounds of the invention. GAPDH was probed for by Western blotting to control for equal protein loading and for normalization of samples. The numbers below the blots show percent intensity of P-SRSF6 signal at 100 nM compared to DMSO control.
Assessment of Inhibition of Phospho-SRSF6 Levels in MDA-MB-468 Cells
MDA-MB-468 cells (ATCC, HTB-132) were cultured in DMEM (BioConcept cat. no. 1-26F03) supplemented with 10% FBS (Sigma cat. no. F9665), 1% Na-pyruvate (Sigma cat. no. S8636), 1% Penicillin-Streptomycin (BioConcept cat. no. 4-01F00-H). When cells reached a density of 70% in 6-well plates (TPP cat. no. 92006), they were treated either with the test compound vehicle DMSO, or with experimental compounds at a final concentration of 100 nM for 2 hours. Thereafter, the culture medium was removed and cells were collected by scraping in Lysis Buffer (20 mM Tris HCl pH7.5, 150 mM NaCl, 1 mM EGTA, 1 mM EDTA, 1% Triton and 1% NP-40) containing protease and phosphatase inhibitors (Halt™ Protease&Phosphatase inhibitor cocktail 100× ThermoScientific cat. no. 1861281) and 1 mM PMSF (Fluka cat. no. 93482). Cleared lysates were stored in Eppendorf tubes at −80° C. until use, and protein concentration in lysates was determined using Pierce 660 nm Protein Assay Reagent (ThermoScientific cat. no. 22660). 20 μg proteins were diluted in 4× Laemmli buffer (Biorad cat. no. 161-0747) containing 10% beta-mercaptoethanol, separated by SDS-PAGE using 10% gels, and then transferred to PVDF membranes (Trans Blot Turbo Transfer Pack BioRad cat. no. 1704156) by Trans-Blot® Turbo™ System semidry blotting methodology (BioRad). Primary antibodies were incubated in TBS-0.1% Tween-20 buffer containing 3% BSA Bovine Albumin Fr.V (Millipore cat. no. 81-053-3) overnight at 4° C. The following primary antibodies were used: Mouse anti-phosphoepitope SR proteins clone 1H4 (Millipore cat. no. MABE50) diluted 1:5000, and rabbit anti-GAPDH clone 14C10 (Cell Signaling cat. no. 2118S) to control for equal protein loading, diluted 1:2000. HRP-conjugated secondary antibodies were incubated one hour at room temperature diluted 1:5000 in TBS-0.1% Tween-20 buffer containing 5% nonfat-dried bovine milk (Sigma cat. no. M7409). The following secondary antibodies were used: Goat anti-mouse-HRP (Jackson cat. no. 115-035-146) and goat anti-rabbit-HRP (Jackson cat. no. 111-035-144). Membranes were incubated with ECL Prime Western Blot Detection Reagent (Amersham cat. no. RPN2236) to detect specific signals using Fusion SOLO S device (Vilber Lourmat). Pixel intensity of the phopsho-SRSF6 (MW 55 kDa in reference to markers) and GAPDH (MW 37 kDa) signals in the Western blots were determined using Evolution-Capt image analysis software (v17.01, Vilber Lourmat). DMSO control was used to set the phospho-SRSF6 signal at baseline, phospho-SRSF6 signals for each sample were normalized by the respective GAPDH signals and percent intensity of P-SRSF6 signal at 100 nM compound compared to DMSO control was calculated (see FIG. 1).

recombinant human CLK3 = target: T1, recombinant human CLK3 (Homo sapiens, UniProt P49761); assay: CLK3 kinase assay (LANCE Ultra); type: biochemical; conditions: 0.5 nM CLK3, 300 μM ATP, 3 hours at 30° C.
T1 construct: purchased Thermo Fisher Scientific PV3826
Method in brief: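 TR-FRET (LANCE Ultra) read-out of phospho-CREBtide after a 3 h, 30 °C reaction containing 300 μM ATP, 50 nM ULight-CREBtide and 0.5 nM recombinant human CLK3, compounds in 1% DMSO.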

T1 sequence (P49761 whole entry): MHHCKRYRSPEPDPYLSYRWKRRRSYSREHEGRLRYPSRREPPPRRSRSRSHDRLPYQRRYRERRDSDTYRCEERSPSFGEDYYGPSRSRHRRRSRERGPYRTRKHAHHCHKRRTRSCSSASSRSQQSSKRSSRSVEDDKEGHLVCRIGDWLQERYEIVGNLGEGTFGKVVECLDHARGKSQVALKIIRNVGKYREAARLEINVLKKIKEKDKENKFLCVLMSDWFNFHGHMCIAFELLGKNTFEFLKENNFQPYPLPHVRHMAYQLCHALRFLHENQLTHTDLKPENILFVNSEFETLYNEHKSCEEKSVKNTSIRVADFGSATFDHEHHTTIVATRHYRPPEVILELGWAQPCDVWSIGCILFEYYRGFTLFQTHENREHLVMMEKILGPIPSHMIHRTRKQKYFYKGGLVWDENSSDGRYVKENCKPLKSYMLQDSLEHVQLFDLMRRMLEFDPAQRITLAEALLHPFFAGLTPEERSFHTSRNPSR

| GI50 (MDA-MB-231 cells) [nM] | IC50 (recombinant human CLK3) [nM] | Compound | activity at 0.1 µM [1] [%] |
| --- | --- | --- | --- |
| 4.5 | 1.2 | N#CCCO/N=C1\c2cc(O[C@H]3CC[C@@H](N)CC3)ccc2-c2ncnc(N)c2C12CCCC2 [Example 101, 3-[(Z)-[4-amino-8-(cis-4-aminocyclohexoxy)spiro[benzo[h]quinazoline-5,1′-cyclopentane]-6-ylidene]amino]oxypropanenitrile] | 8 |
| 96.2 | 4.9 | CC1(C)/C(=N/OCCC#N)c2cc(O[C@H]3CC[C@@H](N)CC3)ccc2-c2ncnc(N)c21 [Example 83, 3-[(Z)-[4-amino-8-(cis-4-aminocyclohexoxy)-5,5-dimethyl-benzo[h]quinazolin-6-ylidene]amino]oxypropanenitrile] | 9 |
|  | 8.8 | CN1C[C@@H](CO/N=C2\c3cc(O[C@H]4CC[C@@H](N)CC4)ccc3-c3ncnc(N)c3C2(C)C)OC1=O [Example 88, (5S)-5-[[(Z)-[4-amino-8-(cis-4-aminocyclohexoxy)-5,5-dimethyl-benzo[h]quinazolin-6-ylidene]amino]oxymethyl]-3-methyl-oxazolidin-2-one] | 21 |
| 630 | 9.1 | CO/N=C1\c2cc(CC3CCNCC3)ccc2-c2ncnc(N)c2C1(C)C [Example 70, (6Z)-6-methoxyimino-5,5-dimethyl-8-(4-piperidylmethyl)benzo[h]quinazolin-4-amine] | 34 |
| 156 |  | CCOCCO/N=C1\c2cc(O[C@H]3CC[C@@H](N)CC3)ccc2-c2ncnc(N)c2C1(C)C [Example 109, (6Z)-8-(cis-4-aminocyclohexoxy)-6-(2-ethoxyethoxyimino)-5,5-dimethyl-benzo[h]quinazoline-4-amine] | 21 |
| 106 |  | CC(C)(C#N)CCO/N=C1\c2cc(O[C@H]3CC[C@@H](N)CC3)ccc2-c2ncnc(N)c2C1(C)C [Example 111, 4-[(Z)-[4-amino-8-(cis-4-aminocyclohexoxy)-5,5-dimethyl-benzo[h]quinazolin-6-ylidene]amino]oxy-2,2-dimethyl-butanenitrile] | 16 |
| > 2000 | 125 | CC1(C)/C(=N\O)c2cc(Br)ccc2-c2ncnc(N)c21 [Example 85, (E)-4-amino-8-bromo-5,5-dimethyl-benzo[h]quinazolin-6-one oxime] |  |
| 670 | 43.6 | COCCO/N=C1\c2cc(N[C@H]3CC[C@@H](N)CC3)ccc2-c2ncnc(N)c2C1(C)C [Example 96, (6Z)—N8-(cis-4-aminocyclohexyl)-6-(2-methoxyethoxyimino)-5,5-dimethyl-benzo[h]quinazoline-4,8-diamine] |  |
| > 2000 | 142 | CC1(C)/C(=N/OC[C@@H]2CNC(=O)O2)c2cc(C#N)ccc2-c2ncnc(N)c21 [Example 92, (6Z)-4-amino-5,5-dimethyl-6-[[(5S)-2-oxooxazolidin-5-yl]methoxyimino]benzo[h]quinazoline-8-carbonitrile] |  |
| > 2000 | 79.3 | COc1ccc2c(c1)/C(=N\OC[C@@H]1CNC(=O)C1)C(C)(C)c1c(N)ncnc1-2 [Example 72, (4S)-4-[[(Z)-(4-amino-8-methoxy-5,5-dimethyl-benzo[h]quinazolin-6-ylidene)amino]oxymethyl]pyrrolidin-2-one] |  |

Continued, compound first:

| Compound | GI50 (MDA-MB-231 cells) [nM] | IC50 (recombinant human CLK3) [nM] | activity at 0.1 µM [1] [%] |
| --- | --- | --- | --- |
| CC1(C)/C(=N/OCCCC#N)c2cc(O[C@H]3CC[C@H](N)CC3)ccc2-c2ncnc(N)c21 [Example 27, 4-[(Z)-[4-amino-8-(trans-4-aminocyclohexoxy)-5,5-dimethyl-benzo[h]quinazolin-6-ylidene]amino]oxybutanenitrile] | 269 | 16.1 | 26 |
| CC(F)(F)CCO/N=C1\c2cc(O[C@H]3CC[C@@H](N)CC3)ccc2-c2ncnc(N)c2C1(C)C [Example 115, (6Z)-8-(cis-4-aminocyclohexoxy)-6-(3,3-difluorobutoxyimino)-5,5-dimethyl-benzo[h]quinazolin-4-amine] | 102 | 19.4 | 17 |
| C=C(c1ccc2c(c1)/C(=N\OC)C(C)(C)c1c(N)ncnc1-2)[C@H]1CC[C@H](N)CC1 [Example 4, (6Z)-8-[1-(trans-4-aminocyclohexyl)vinyl]-6-methoxyimino-5,5-dimethyl-benzo[h]quinazolin-4-amine] | 271 | 2.1 | 32 |
| C#CCO/N=C1\c2cc(O[C@H]3CC[C@H](N)CC3)ccc2-c2ncnc(N)c2C1(C)C [Example 21, (6Z)-8-(trans-4-aminocyclohexoxy)-5,5-dimethyl-6-prop-2-ynoxyimino-benzo[h]quinazolin-4-amine] | 569 | 27.2 | 12 |
| CN1C[C@@H](CO/N=C2\c3cc(O[C@H]4CC[C@H](N)CC4)ccc3-c3ncnc(N)c3C2(C)C)OC1=O [Example 56, (5S)-5-[[(Z)-[4-amino-8-(trans-4-aminocyclohexoxy)-5,5-dimethyl-benzo[h]quinazolin-6-ylidene]amino]oxymethyl]-3-methyl-oxazolidin-2-one] | 332 | < 1.5 |  |
| COc1ccc2c(c1)/C(=N\O[C@H]1CC[C@H](N)CC1)C(C)(C)c1c(N)ncnc1-2 [Example 10, (6Z)-6-(trans-4-aminocyclohexoxy)imino-8-methoxy-5,5-dimethyl-benzo[h]quinazolin-4-amine] | > 2000 | 75.8 |  |
| CC1(C)/C(=N/OCCCO)c2cc(O[C@H]3CC[C@H](N)CC3)ccc2-c2ncnc(N)c21 [Example 15, 3-[(Z)-[4-amino-8-(trans-4-aminocyclohexoxy)-5,5-dimethyl-benzo[h]quinazolin-6-ylidene]amino]oxypropan-1-ol] | 714 | 29.8 |  |
| CC1(C)/C(=N/OCCCCF)c2cc(O[C@H]3CC[C@@H](N)CC3)ccc2-c2ncnc(N)c21 [Example 113, (6Z)-8-(cis-4-aminocyclohexoxy)-6-(4-fluorobutoxyimino)-5,5-dimethyl-benzo[h]quinazolin-4-amine] | 167 | 21.2 |  |
| CC1(C)/C(=N/OCCCC(F)(F)F)c2cc(O[C@H]3CC[C@@H](N)CC3)ccc2-c2ncnc(N)c21 [Example 114, (6Z)-8-(cis-4-aminocyclohexoxy)-5,5-dimethyl-6-(4,4,4-trifluorobutoxyimino)benzo[h]quinazolin-4-amine] | 373 | 48.9 |  |
| COc1ccc2c(c1)/C(=N\O[C@H]1CC[C@@H](N)CC1)C(C)(C)c1c(N)ncnc1-2 [Example 9, (6Z)-6-(cis-4-aminocyclohexoxy)imino-8-methoxy-5,5-dimethyl-benzo[h]quinazolin-4-amine] | 1050 | 90.2 |  |
| COc1ccc2c(c1)/C(=N\OC[C@@H]1CN(C)C(=O)O1)C(C)(C)c1c(N)ncnc1-2 [Example 50, (5S)-5-[[(Z)-(4-amino-8-methoxy-5,5-dimethyl-benzo[h]quinazolin-6-ylidene)amino]oxymethyl]-3-methyl-oxazolidin-2-one] | 761 | < 1.5 |  |
